# Source: the supplement of paper PMC10307832
# Key:
# Experiment in all cases: relative viability (nuclei count vs DMSO), 5 days (fraction); higher = more cells survive
# [1] = compound: C1COCCN1C2=NC(=NC3=C2OC4=C3C=CC=N4)C5=CC(=CC=C5)NC(=O)C6=CN=C(C=C6)N + Nc1nc2[nH]cc(CCc3ccc(C(=O)N[C@@H](CCC(=O)O)C(=O)O)cc3)c2c(=O)[nH]1 [Pemetrexed] (partner 0.2 µM)
# Method in brief: (§1)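 Five library-drug doses in √10 steps were combined with a fixed anchor-drug dose, or a single drug was given alone, by pin tool to lung cancer cell lines in 1536-well plates the day after seeding. Nuclei were stained and counted after 5 days. Relative viability is the nuclei count in treated wells over that in vehicle wells, taken as the median of duplicate plates.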
# Entinostat + Olaparib = compound: Nc1ccccc1NC(=O)c1ccc(CNC(=O)OCc2cccnc2)cc1 [Entinostat] + O=C(c1cc(Cc2n[nH]c(=O)c3ccccc23)ccc1F)N1CCN(C(=O)C2CC2)CC1 [Olaparib] (partner 8 µM)
# Method in brief: as §1
# Entinostat + Tozasertib = compound: Nc1ccccc1NC(=O)c1ccc(CNC(=O)OCc2cccnc2)cc1 [Entinostat] + Cc1cc(Nc2cc(N3CCN(C)CC3)nc(Sc3ccc(NC(=O)C4CC4)cc3)n2)n[nH]1 [Tozasertib] (partner 0.1 µM)
# Method in brief: as §1
# [2] = compound: C1COCCN1C2=NC(=NC3=C2OC4=C3C=CC=N4)C5=CC(=CC=C5)NC(=O)C6=CN=C(C=C6)N + O=C(CCCCCCC(=O)Nc1ccccc1)NO [Vorinostat] (partner 1 µM)
# Method in brief: as §1
Cell Line,relative viability ([1]; first compound 0.02 µM),relative viability ([1]; first compound 0.06325 µM),relative viability ([1]; first compound 0.2 µM),relative viability ([1]; first compound 0.6325 µM),relative viability ([1]; first compound 2 µM),relative viability (Entinostat + Olaparib; first compound 0.02 µM),relative viability (Entinostat + Olaparib; first compound 0.06325 µM),relative viability (Entinostat + Olaparib; first compound 0.2 µM),relative viability (Entinostat + Olaparib; first compound 0.6325 µM),relative viability (Entinostat + Olaparib; first compound 2 µM),relative viability (Entinostat + Tozasertib; first compound 0.02 µM),relative viability (Entinostat + Tozasertib; first compound 0.06325 µM),relative viability (Entinostat + Tozasertib; first compound 0.2 µM),relative viability (Entinostat + Tozasertib; first compound 0.6325 µM),relative viability (Entinostat + Tozasertib; first compound 2 µM),relative viability ([2]; first compound 0.02 µM),relative viability ([2]; first compound 0.06325 µM),relative viability ([2]; first compound 0.2 µM),relative viability ([2]; first compound 0.6325 µM),relative viability ([2]; first compound 2 µM)
LK-2,0.291,0.238,0.284,0.208,0.24,0.857,0.904,0.584,0.475,0.239,0.151,0.176,0.168,0.159,0.168,0.125,0.317,0.247,0.273,0.257
NCI-H1651,0.615,0.581,0.572,0.599,0.31,0.2,0.199,0.199,0.174,0.154,0.619,0.705,0.584,0.333,0.237,0.382,0.595,0.563,0.537,0.529
LC-2-ad,0.263,0.292,0.289,0.253,0.262,0.785,0.635,0.633,0.527,0.3,0.425,0.367,0.368,0.299,0.242,0.712,0.695,0.738,0.702,0.508
NCI-H1734,0.393,0.427,0.36,0.351,0.33,0.0279,0.637,0.621,0.563,0.356,0.25,0.296,0.267,0.215,0.22,0.815,0.858,0.612,0.706,0.522
NCI-H441,0.278,0.251,0.248,0.245,0.251,0.625,0.467,0.317,0.18,0.113,0.593,0.483,0.425,0.275,0.224,0.759,0.918,0.798,0.701,0.377
NCI-H23,0.836,0.721,0.529,0.493,0.344,0.282,0.242,0.237,0.179,0.12,0.364,0.264,0.292,0.193,0.121,0.609,0.635,0.5,0.473,0.468
NCI-H1395,0.941,0.87,0.735,0.643,0.692,0.445,0.466,0.423,0.398,0.408,0.668,0.721,0.696,0.496,0.47,0.66,0.727,0.542,0.637,0.595
NCI-H596,0.569,0.488,0.523,0.467,0.393,0.748,0.662,0.667,0.558,0.405,0.76,0.93,1.14,0.621,0.503,0.618,0.551,0.642,0.489,0.465
NCI-H460,0.0585,0.0645,0.0766,0.0835,0.0565,0.37,0.328,0.137,0.0676,0.0406,0.395,0.0956,0.0498,0.0451,0.0275,1.51,0.788,0.907,0.559,0.221
